According to patent publication US4659734A, “Olinecarboxylic acid derivatives” (Nippon Shinyaku Co., Ltd., priority 1983, dated 1987):
Converted amounts (≈) assume the structure as drawn.

Key:
[1] = Acute toxicity; conditions: mouse, in vivo; oral, groups of ten ddY male mice; read-out: 50% Lethal Doses (LD50)
Method: Groups of ten ddY strain male mice (body weights: 20±1 grams) of the test compound were orally administered to determine the LD50. There was […] in which many mice died when the dose was 2000 mg/kg or less.

[2] = tested on: Streptococcus pyogenes S-23; experiment: Minimum growth inhibiting concentration, Japan Chemotherapeutic Society method; type: cell-based; conditions: S23; Streptococcus pyogenes S-23, Gram +; 5% horse blood added agar medium; read-out: Minimum Growth Inhibiting Concn
Method: (§1) The Antibacterial activity of the compounds of Examples 14, 13, 22b, 21 and 15 was determined in accordance with the method of Japan Chemotherapeutic Society (cf. Nippon Kagaku Ryoho Gakkai Shi, volume 29, number 1, pages 76 to 79, 1981) and the results are reported in Table 1, which follows. | *5% Horse blood added agar medium for sensitivity measurement being used.

[3] = tested on: Bacillus subtilis ATCC 6633; experiment: as above; type: cell-based; conditions: ATCC6633; Bacillus subtilis ATCC 6633, Gram +; 5% horse blood added agar medium; read-out: Minimum Growth Inhibiting Concn
Method: as §1

[4] = tested on: Streptococcus pneumoniae Type I; experiment: as above; type: cell-based; conditions: Gram +, 5% horse blood added agar medium, read-out: Minimum Growth Inhibiting Concn
Method: as §1

[5] = tested on: Escherichia coli KC-14; experiment: Mouse intraperitoneal infection, survival after one week; type: in vivo, ddY strain mice; conditions: KC14, po; Escherichia coli KC-14, 5 × 10^4 per mouse; one dose per os 2 h after infection
Method: (§2) ddY--Strain mice (male; body weight 20±1 grams) of SPF were innoculated with the bacteria set forth in Table 2 by administration of a supension of the bacterial in 4% mucin solution into the abdominal cavity. A compound of the invention was given one time per os two hours after the infection, and, from the survival rate after one week. 50% effective doses (ED50) were calculated by the Behrens-Karber method.

[6] = tested on: Pseudomonas aeruginosa E-2; experiment: as above; type: in vivo, ddY strain mice; conditions: E2, po; Pseudomonas aeruginosa E-2, 2 × 10^5 per mouse; one dose per os 2 h after infection; Behrens-Karber
Method: as §2

[7] = tested on: Listeria monocytogenes RIMD 1205020; experiment: Minimum growth inhibiting concentration, Japan Chemotherapeutic Society method; type: cell-based; conditions: RIMD1205020; Listeria monocytogenes RIMD 1205020, Gram +; read-out: Minimum Growth Inhibiting Concn
Method: (§3) The Antibacterial activity of the compounds of Examples 14, 13, 22b, 21 and 15 was determined in accordance with the method of Japan Chemotherapeutic Society (cf. Nippon Kagaku Ryoho Gakkai Shi, volume 29, number 1, pages 76 to 79, 1981) and the results are reported in Table 1, which follows.

[8] = tested on: Staphylococcus aureus 209-PJC; experiment: as above; type: cell-based; conditions: Gram +, read-out: Minimum Growth Inhibiting Concn
Method: as §3

[9] = tested on: Staphylococcus aureus Smith; experiment: as above; type: cell-based; conditions: Gram +, read-out: Minimum Growth Inhibiting Concn
Method: as §3

[10] = tested on: Proteus mirabilis 181; experiment: as above; type: cell-based; conditions: Proteus mirabilis 181, Gram -; read-out: Minimum Growth Inhibiting Concn
Method: as §3

[11] = tested on: Proteus vulgaris DX-19; experiment: as above; type: cell-based; conditions: DX19; Proteus vulgaris DX-19, Gram -; read-out: Minimum Growth Inhibiting Concn
Method: as §3

[12] = tested on: Pseudomonas aeruginosa No. 12; experiment: as above; type: cell-based; conditions: Pseudomonas aeruginosa No. 12, Gram -; read-out: Minimum Growth Inhibiting Concn
Method: as §3

[13] = tested on: Escherichia coli KC-14; experiment: as above; type: cell-based; conditions: KC14; Escherichia coli KC-14, Gram -; read-out: Minimum Growth Inhibiting Concn
Method: as §3

[14] = tested on: Klebsiella pneumoniae K-1966; experiment: as above; type: cell-based; conditions: K1966; Klebsiella pneumoniae K-1966, Gram -; read-out: Minimum Growth Inhibiting Concn
Method: as §3

[15] = tested on: Pseudomonas aeruginosa E-2; experiment: as above; type: cell-based; conditions: E2; Pseudomonas aeruginosa E-2, Gram -; read-out: Minimum Growth Inhibiting Concn
Method: as §3

[16] = tested on: Acinetobacter calcoacelicus 54; experiment: as above; type: cell-based; conditions: Acinetobacter calcoacelicus 54, Gram -; read-out: Minimum Growth Inhibiting Concn
Method: as §3

[17] = tested on: Pseudomonas cepacia ATCC 25416; experiment: as above; type: cell-based; conditions: Burkholderia cepacia, ATCC25416; Pseudomonas cepacia ATCC 25416, Gram -; read-out: Minimum Growth Inhibiting Concn
Method: as §3

[18] = tested on: Alcaligenes faecalis ATCC 8750; experiment: as above; type: cell-based; conditions: ATCC8750; Alcaligenes faecalis ATCC 8750, Gram -; read-out: Minimum Growth Inhibiting Concn
Method: as §3

[19] = tested on: Serracia marcescens IFO 3736; experiment: as above; type: cell-based; conditions: Serracia marcescens IFO 3736, Gram -; read-out: Minimum Growth Inhibiting Concn
Method: as §3

[20] = tested on: Micrococcus luteus ATCC 9341; experiment: as above; type: cell-based; conditions: ATCC9341; Micrococcus luteus ATCC 9341, Gram +; read-out: Minimum Growth Inhibiting Concn
Method: as §3

[21] = tested on: Pseudomonas maltophilia ATCC 13637; experiment: as above; type: cell-based; conditions: Stenotrophomonas maltophilia, ATCC13637; Pseudomonas maltophilia ATCC 13637, Gram -; read-out: Minimum Growth Inhibiting Concn
Method: as §3

[22] = tested on: Escherichia coli NIHJ JC-2; experiment: as above; type: cell-based; conditions: NIHJJC2; Escherichia coli NIHJ JC-2, Gram -; read-out: Minimum Growth Inhibiting Concn
Method: as §3

[23] = tested on: Acimetobacter calcoaceticus; experiment: Mouse intraperitoneal infection, survival after one week; type: in vivo, ddY strain mice; conditions: po, 1 × 10^7 per mouse, one dose per os 2 h after infection
Method: as §2

[24] = tested on: Klebsiella pneumoniae K-1966; experiment: as above; type: in vivo, ddY strain mice; conditions: K1966, po; Klebsiella pneumoniae K-1966, 3 × 10^3 per mouse; one dose per os 2 h after infection
Method: as §2

SMILES	LD50 [1] [mg/kg]	MIC [2] [µg/mL]	MIC [3] [µg/mL]	MIC [4] [µg/mL]	MIC [7] [µg/mL]	MIC [8] [µg/mL]	MIC [9] [µg/mL]	MIC [10] [µg/mL]	MIC [11] [µg/mL]	MIC [12] [µg/mL]	MIC [13] [µg/mL]	MIC [14] [µg/mL]	MIC [15] [µg/mL]	MIC [16] [µg/mL]	MIC [17] [µg/mL]	MIC [18] [µg/mL]	MIC [19] [µg/mL]	MIC [20] [µg/mL]	MIC [21] [µg/mL]	MIC [22] [µg/mL]	other results
CN1CCN(c2cc3c(cc2F)c(=O)c(C(=O)O)c2sccn23)CC1 [Example 14, 7-fluoro-8-(4-methyl-1-piperazinyl)-5-oxo-5H-thiazolo(3,2-a)-quinoline-4-carboxylic acid]	> 2000	0.2 (≈ 0.553 µM)	0.0063 (≈ 0.0174 µM)	0.2 (≈ 0.553 µM)	1.56 (≈ 4.32 µM)	0.1 (≈ 0.277 µM)	0.05 (≈ 0.138 µM)	0.013 (≈ 0.036 µM)	0.0063 (≈ 0.0174 µM)	0.39 (≈ 1.08 µM)	0.013 (≈ 0.036 µM)	0.1 (≈ 0.277 µM)	0.39 (≈ 1.08 µM)	0.39 (≈ 1.08 µM)	0.78 (≈ 2.16 µM)	0.78 (≈ 2.16 µM)	0.39 (≈ 1.08 µM)	0.78 (≈ 2.16 µM)	0.025 (≈ 0.0692 µM)	0.1 (≈ 0.277 µM)	ED50 [5]: 1.5 mg/kg; ED50 [6]: 16 mg/kg
C=CCN1CCN(c2cc3c(cc2F)c(=O)c(C(=O)O)c2sccn23)CC1 [Example 15, 8-(4-Allyl-1-piperazinyl)-7-fluoro-5-oxo-5H-thiazolo(3,2-a)-quinoline-4-carboxylic acid]	> 2000	0.1 (≈ 0.258 µM)	0.0063 (≈ 0.0163 µM)	0.39 (≈ 1.01 µM)	0.39 (≈ 1.01 µM)	0.025 (≈ 0.0645 µM)	0.013 (≈ 0.0336 µM)	0.2 (≈ 0.516 µM)	0.05 (≈ 0.129 µM)	0.78 (≈ 2.01 µM)	0.05 (≈ 0.129 µM)	0.05 (≈ 0.129 µM)	1.56 (≈ 4.03 µM)	0.39 (≈ 1.01 µM)	1.56 (≈ 4.03 µM)	0.78 (≈ 2.01 µM)	0.39 (≈ 1.01 µM)	1.56 (≈ 4.03 µM)	0.0063 (≈ 0.0163 µM)	0.2 (≈ 0.516 µM)	ED50 [23]: > 35 mg/kg; ED50 [5]: 2 mg/kg; ED50 [24]: 3.3 mg/kg; ED50 [6]: 10.7 mg/kg
Cc1csc2c(C(=O)O)c(=O)c3cc(F)c(N4CCNCC4)cc3n12 [Example 21, 7-fluoro-1-methyl-5-oxo-8-(1-piperazinyl)-5H-thiazolo(3,2-a)-quinoline-4-carboxylic acid]	> 2000	0.1 (≈ 0.277 µM)	0.0063 (≈ 0.0174 µM)	0.2 (≈ 0.553 µM)	0.2 (≈ 0.553 µM)	0.025 (≈ 0.0692 µM)	0.013 (≈ 0.036 µM)	0.05 (≈ 0.138 µM)	0.0016 (≈ 0.00443 µM)	0.39 (≈ 1.08 µM)	0.0063 (≈ 0.0174 µM)	0.013 (≈ 0.036 µM)	0.39 (≈ 1.08 µM)	0.2 (≈ 0.553 µM)	0.2 (≈ 0.553 µM)	0.78 (≈ 2.16 µM)	0.2 (≈ 0.553 µM)	0.39 (≈ 1.08 µM)	0.013 (≈ 0.036 µM)	0.025 (≈ 0.0692 µM)	
